Experiments:
[1] = tested on: P. falciparum Dd2; assay: Anti-plasmodial growth inhibition, SYBR green I-based DNA quantification; type: cell-based; details: Plasmodium falciparum, 72 h incubation, n=3
Experimental: (§1) Select compounds described herein were evaluated for structure-activity analyses for anti-plasmodial activity in vitro. For Dd2 EC50 (M), calculations were for n=3. For HepG2 EC50 (M), calculations were for n=1. For the human microsomal stability determination, t was 60 minutes.
Different dilutions of the compound in RPMI 1640 (Life Technologies) from a stock of 10 mM in dimethyl sulfoxide (DMSO) were added to the culture at a 1% parasitemia and 2% hematocrit in 96-well black plates (Santa Cruz Biotechnology). Maximum DMSO concentration in the culture never exceeded 0.25%. Chloroquine at 1 μM was used as a positive control to determine the baseline value. Following 72 h incubation at 37° C., the ability of the compounds to inhibit growth of the parasite was determined by a SYBR green I-based DNA quantification assay (See Bennett et al., 2004, Chemother. 48, 1807-1810; see also Johnson et al., 2007, Antimicrob. Agents. Chemother. 51, 1926-1933; Smilkstein et al., 2004, Antimicrob. Agents. Chemother. 48, 1803-1806). EC50 was calculated (n=3) from a dose response curve that was generated from a concentration range of 0-20 μM using GraphPad Prism v5.0.

[2] = tested on: HepG2 human hepatoma cells; assay: HepG2 cytotoxicity, MTS cell proliferation assay; type: cell-based; details: 48 h, n=1
Experimental: as §1
Selected compounds were evaluated for cytotoxicity using HepG2 human hepatoma cells. A 384-well clear bottom plate was seeded with 2,500 cells/well and incubated for 24 h. Serial dilutions of the compound (were added to the plate and plates were incubated for an additional 48 h. Viability of cells were assessed by MTS [(3-(4,5-dimethylthiazol-2-yl)-5-(3-carboxymethoxyphenyl)-2-(4-sulfophenyl)-2H-tetrazolium) cell proliferation assay (CellTiter 96® Aqueous non-radioactive cell proliferation assay, Promega) (See Cory et al., Cancer Communications, 3, 1991, p. 207-212).

SMILES	EC50 [1] [µM]	EC50 [2] [µM]
CC(C)(C)[S@@+]([O-])N1Cc2cc(C(=O)NCc3ccc4c(c3)OCO4)nc(-c3cccc(-c4cccnc4)c3)c2C1 [2015-foleyc-212, (R)-N-(benzo[d][1,3]dioxol-5-ylmethyl)-2-(tert-butylsulfinyl)-4-(3-(pyridin-3-yl)phenyl)-2,3-dihydro-1H-pyrrolo[3,4-c]pyridine-6-carboxamide]	> 25	> 100
CC(C)(C)[S@@+]([O-])N1Cc2cc(C(=O)NCc3ccccc3F)nc(-c3cccc(-c4cccnc4)c3)c2C1 [2015-foleyc-213, (R)-2-(tert-butylsulfinyl)-N-(2-fluorobenzyl)-4-(3-(pyridin-3-yl)phenyl)-2,3-dihydro-1H-pyrrolo[3,4-c]pyridine-6-carboxamide]	> 25	> 100
CC(C)(C)[S@@+]([O-])N1Cc2cc(C(=O)NCc3ccc4c(c3)OCO4)nc(-c3cccc(-c4cc5ccccc5o4)c3)c2[C@H]1CCO [2015-foleyc-219, (R)-N-(benzo[d][1,3]dioxol-5-ylmethyl)-4-(3-(benzofuran-2-yl)phenyl)-2-((R)-tert-butylsulfinyl)-3-(2-hydroxyethyl)-2,3-dihydro-1H-pyrrolo[3,4-c]pyridine-6-carboxamide]	1.39 ± 0.13	> 100
CC(C)(C)[S@@+]([O-])N1Cc2cc(C(=O)NCc3ccccc3F)nc(-c3cccc(-c4cc5ccccc5o4)c3)c2[C@H]1CCO [2015-foleyc-220, (R)-4-(3-(benzofuran-2-yl)phenyl)-2-((R)-tert-butylsulfinyl)-N-(2-fluorobenzyl)-3-(2-hydroxyethyl)-2,3-dihydro-1H-pyrrolo[3,4-c]pyridine-6-carboxamide]	> 25	> 100
CC(C)(C)[S@@+]([O-])N1Cc2cc(C(=O)NCC(F)(F)F)nc(-c3cccc(-c4cc5ccccc5o4)c3)c2[C@H]1CCO [2015-foleyc-226, (R)-4-(3-(benzofuran-2-yl)phenyl)-2-((R)-tert-butylsulfinyl)-3-(2-hydroxyethyl)-N-(2,2,2-trifluoroethyl)-2,3-dihydro-1H-pyrrolo[3,4-c]pyridine-6-carboxamide]	> 25	> 100
CC(C)(C)[S@@+]([O-])N1Cc2cc(C(=O)NCC(F)(F)F)nc(-c3cccc(-c4cccnc4)c3)c2[C@H]1CCO [2015-foleyc-237, (R)-2-((R)-tert-butylsulfinyl)-3-(2-hydroxyethyl)-4-(3-(pyridin-3-yl)phenyl)-N-(2,2,2-trifluoroethyl)-2,3-dihydro-1H-pyrrolo[3,4-c]pyridine-6-carboxamide]	5.84 ± 0.94	> 100

Source: patent US12071436B2, “Anti-parasitic compounds and uses thereof” (Memorial Sloan-Kettering Cancer Center, priority 2016, dated 2024)
